Assay [1] deals with picrotoxin-induced seizures in male NSA mice. In words: animal or person. Format: in vivo. As to conditions: for anti-convulsant activity against picrotoxin-induced seizures (conclusion): NSA mice; for ED50 (95% confidence limit) / ED50: i.p. 15 minutes prior to picrotoxin 5 mg/kg s.c.; for ED50: Mus musculus. The protocol: Anticonvulsant activity against picrotoxin-induced seizures is considered evidence of clinical antiepileptic potential and reason for further evaluation of a test compound's anticonvulsant profile (Swinyard, E. A. et al., General principles: experimental detection, quantification and evaluation of anticonvulsants. In: Antiepileptic Drugs, D. M. Woodbury et al., eds. Raven Press, New York (1990) pp. 111–126).
Picrotoxin (5 mg/kg, Sigma Chem. Co., St. Louis, Mo., USA) was dissolved in saline and administered subcutaneously to induce seizures. In addition, picrotoxin alone was administered to seven animals as a control. All test drugs were dissolved in dimethylsulfoxide (DMSO).
After picrotoxin injection, mice were placed into a plexiglass cage for 30 minutes of observation. The appearance of seizures was defined as the presence of a single episode of clonic or tonic activity (including myoclonic jerks) during the 30 minute observation period. […] Animals were euthanized immediately after the observation period by CO2 inhalation. The ED50 (the dose of test compound at which half of the animals were protected against picrotoxin-induced seizures) values and their 95% confidence limits were calculated by the method of Litchfield and Wilcoxon (J. Pharmacol. Exp. Ther. 96:99–113 (1949)).

The test system of assay [2] is convulsions induced by the compound Ro 5-4864 in mice. Particulars: 100 mg/kg; cited from earlier work.
Assay [3] relates to picrotoxin convulsions in Tuck No. 1 mice. As to conditions: cited from earlier work.
Assay [4] relates to pentylenetetrazole convulsions in Tuck No. 1 mice. As to conditions: cited from earlier work.
Assay [5] concerns convulsions induced by tryptamine in mice. Particulars: Table 6 of Ito; cited from earlier work.
The mark [6] stands for this setting: Example 2, enantiomers of Example 1, 30 minute observation.
The mark [7] stands for this setting: Example 4, enantiomers of Example 3.

Entries after “also recorded” stand apart in the source; their conditions may differ. Where two headings read alike, the source gives them in different places.

For `CC[C@H]1C(C)=NN=C(c2ccc(OC)c(OC)c2)c2cc(OC)c(OC)cc21` [R-tofisopam], the “anti-convulsant activity against picrotoxin-induced seizures (conclusion)” value in assay [1] (Example 2) is “no anti-convulsant activity”. Besides, the “inhibition of picrotoxin-induced convulsions” value in assay [1] (Example 2, at either 20 or 50 mg/kg i.p.) was “did not inhibit”. The “ED50 (95% confidence limit)” value in assay [1] (setting [6]) is given as “Inactive”; in assay [1] (setting [7]), “could not be calculated; also recorded: not calculable”. The “protection against picrotoxin-induced seizures” value was “no further increase in protection” in assay [1] (Example 4, 90 mg/kg) and “no protection” in assay [1] (Example 4, 128 mg/kg). Moreover, the “protection from picrotoxin-induced seizures, all doses tested” value in assay [1] (Example 4, 32-128 mg/kg) is under 50%. In assay [1] (Example 4, doses of 32 mg/kg and 64 mg/kg), the anticonvulsant activity entry was “exhibits anticonvulsant activity”.

On to `CC[C@@H]1C(C)=NN=C(c2ccc(OC)c(OC)c2)c2cc(OC)c(OC)cc21` [S-tofisopam], for which the “protection against picrotoxin-induced seizures” value in assay [1] (Example 2, 40 mg/kg i.p.) is recorded as “over 60%”. Further, the “anti-convulsant activity against picrotoxin-induced seizures (conclusion)” value in assay [1] (Example 2) is recorded as “intrinsic anti-convulsant activity”. The “ED50 (95% confidence limit)” value in assay [1] (setting [6]) is given as ~35 (28–43) mg/kg; in assay [1] (setting [7]), 15.1 (7.6–30.1) mg/kg. In addition, the “anti-convulsant activity (conclusion)” value in assay [1] (Example 4) is given as “intrinsic anti-convulsant activity”. For the same compound, the “anti-convulsant activity compared with the racemate” value in assay [1] (Example 4, highly pure S-tofisopam) is “significantly greater anti-convulsant activity”.

In the case of `CCC1C(C)=NN=C(c2ccc(OC)c(OC)c2)c2cc(OC)c(OC)cc21` (racemic) [tofisopam, 1-(3,4-dimethoxy-phenyl)-4-methyl-5-ethyl-7,8-dimethoxy-5H-2,3-benzodiazepine], in assay [1] (Example 2), the “anti-convulsant activity against picrotoxin-induced seizures (conclusion)” value was “intrinsic anti-convulsant activity”. For the same compound, the “anti-convulsant activity (conclusion)” value in assay [1] (Example 4) is listed as “intrinsic anti-convulsant activity”. For the same compound, the ED50 in assay [1] (read-out: ED50 (95% confidence limit), Example 2, enantiomers of Example 1, 30 minute observation) came to 37.8 mg/kg. In assay [1] (read-out: ED50 (95% confidence limit), Example 4, enantiomers of Example 3), the ED50 turned out to be 51.4 mg/kg. In assay [2], the “myoclonic jerks in treated mice” value is listed as “all of the treated mice still experienced myoclonic jerks” and the “number of mice having convulsions” value is reported as “reduced the number of mice having convulsions”. The “number or severity of convulsions” value in assay [3] (10–50 mg/kg, 6 mg/kg of picrotoxin) is given as “no affect”. For the same compound, the “effect in combination with 3 mg/kg picrotoxin” value in assay [3] (25–50 mg/kg) was “proconvulsant activity”. The “effect as an anti-convulsant” value in assay [4] (10–25 mg/kg, 60 mg/kg of pentylenetetrazole) was “no effect”. The “effect in combination with 30 mg/kg pentylenetetrazole” value in assay [4] (25–50 mg/kg) was “proconvulsant activity”. Besides, in assay [5], the incidence of convulsions result is reported as “no effect”.

The values are drawn from patent US7078398B2, “Compositions and methods for treating or preventing convulsions or seizures” (Vela Pharamaceuticals, Inc., priority 2001, dated 2006).
